Laboratory results taken from ChEMBL document CHEMBL1201862, “PubChem BioAssay data set” (2004).
Calls of active or inactive are those of the source. Cut-off read from the data, not from the text of the source, for most assays here: actives have a measured EC50 and inactives only a lower limit.

Columns and labels:
[1] = loss of viability in HepG2 cells – cell-based, CellTiter-Glo, cherry-picked, cytotoxicity control for Shn3 inhibitor project, dose response (AID 624134); assay type: functional
[2] = non-specific 3'UTR reporter inhibition in Clone20-Shn3RL – cell-based, Renilla luciferase, cherry-picked, counter-screen for Shn3 inhibitor project, dose response (AID 624133); assay type: functional
[3] = molecular target: T1, Carboxy-terminal domain RNA polymerase II polypeptide A small phosphatase 1 (Homo sapiens, UniProt Q9GZU7); assay: CTDSP1 inhibitors, concentration-response, biochemical, absorbance readout, ultra-high-throughput screen actives (AID 540297); assay type: functional
T1 sequence (Q9GZU7 whole entry): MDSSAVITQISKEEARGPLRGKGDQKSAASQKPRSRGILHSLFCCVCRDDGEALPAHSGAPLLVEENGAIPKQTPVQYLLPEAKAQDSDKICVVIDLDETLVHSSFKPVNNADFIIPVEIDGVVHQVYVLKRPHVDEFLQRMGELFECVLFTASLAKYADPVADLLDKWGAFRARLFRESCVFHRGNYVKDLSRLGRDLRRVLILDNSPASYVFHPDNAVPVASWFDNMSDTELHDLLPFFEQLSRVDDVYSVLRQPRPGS

[4] = molecular target: T2, Heat shock factor protein 1 (Mus musculus, UniProt P38532); assay: enhancement of HSF1-driven luciferase signal – cell-based, NIH3T3, luminescence, dose retest, confirmation (AID 435004); assay type: functional;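 note: stress induced by proteasome inhibitor MG132 added 30 min after compound; luciferase reporter driven by HSF1 response element in NIH3T3 cells; actives raise luminescence as potentiators of the MG132 stress response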
T2 sequence (P38532 whole entry): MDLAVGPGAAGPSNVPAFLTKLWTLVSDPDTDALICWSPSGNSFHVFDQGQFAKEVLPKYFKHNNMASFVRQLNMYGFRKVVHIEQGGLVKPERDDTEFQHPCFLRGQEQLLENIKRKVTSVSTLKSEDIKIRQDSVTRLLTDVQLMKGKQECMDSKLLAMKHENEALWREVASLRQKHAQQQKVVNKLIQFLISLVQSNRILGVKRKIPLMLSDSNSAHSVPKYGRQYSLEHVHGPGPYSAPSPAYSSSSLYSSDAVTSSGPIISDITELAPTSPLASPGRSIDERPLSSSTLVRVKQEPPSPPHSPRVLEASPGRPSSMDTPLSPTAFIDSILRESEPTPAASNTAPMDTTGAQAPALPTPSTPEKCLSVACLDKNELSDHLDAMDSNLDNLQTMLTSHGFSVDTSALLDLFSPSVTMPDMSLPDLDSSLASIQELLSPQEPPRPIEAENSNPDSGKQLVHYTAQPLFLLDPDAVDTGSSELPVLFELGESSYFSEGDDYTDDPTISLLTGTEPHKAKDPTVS

[5] = molecular target: Cytochrome P450 2D6 (Homo sapiens, UniProt P10635);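 note: CYP2D6 member of a cytochrome P450 panel assay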
[6] = reduction of Shn3 3'UTR-driven luciferase in osteoblasts – cell-based, Clone20 osteoblasts, firefly luciferase, cherry-picked, dose response (AID 624132); assay type: functional;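 note: firefly luciferase luminescence from reporter carrying the Shn3 3'UTR in osteoblasts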
[7] = DRD fibroblast viability loss – cell-based, non-viral oncogenic, luminescence, dose response (AID 1934); assay type: functional; conditions: Homo sapiens
[8] = tested on: BJ; assay: BJ-TERT fibroblast viability loss – cell-based, RAS-independent, luminescence, dose response (AID 1933); assay type: functional; conditions: Homo sapiens
[9] = tested on: BJ; assay: BJ-TERT-LT-ST fibroblast viability loss – cell-based, RAS-independent, luminescence, dose response (AID 1935); assay type: functional; conditions: Homo sapiens;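 note: BJ fibroblasts immortalized with TERT plus LT and ST oncogenes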
[10] = tested on: BJ; assay: cells; assay type: functional, cell-based; conditions: Homo sapiens
[11] = molecular target: T3, Protein RecA (Mycobacterium tuberculosis, UniProt P9WHJ3); assay: Fluorescence Cell-Free Homogeneous Dose Retest to Identify Inhibitors of RecA-Intein Splicing Activity. [Related pubchem assays (depositor defined):AID2097, AID2223, AID489010, AID492950]; assay type: functional
T3 sequence (P9WHJ3 whole entry): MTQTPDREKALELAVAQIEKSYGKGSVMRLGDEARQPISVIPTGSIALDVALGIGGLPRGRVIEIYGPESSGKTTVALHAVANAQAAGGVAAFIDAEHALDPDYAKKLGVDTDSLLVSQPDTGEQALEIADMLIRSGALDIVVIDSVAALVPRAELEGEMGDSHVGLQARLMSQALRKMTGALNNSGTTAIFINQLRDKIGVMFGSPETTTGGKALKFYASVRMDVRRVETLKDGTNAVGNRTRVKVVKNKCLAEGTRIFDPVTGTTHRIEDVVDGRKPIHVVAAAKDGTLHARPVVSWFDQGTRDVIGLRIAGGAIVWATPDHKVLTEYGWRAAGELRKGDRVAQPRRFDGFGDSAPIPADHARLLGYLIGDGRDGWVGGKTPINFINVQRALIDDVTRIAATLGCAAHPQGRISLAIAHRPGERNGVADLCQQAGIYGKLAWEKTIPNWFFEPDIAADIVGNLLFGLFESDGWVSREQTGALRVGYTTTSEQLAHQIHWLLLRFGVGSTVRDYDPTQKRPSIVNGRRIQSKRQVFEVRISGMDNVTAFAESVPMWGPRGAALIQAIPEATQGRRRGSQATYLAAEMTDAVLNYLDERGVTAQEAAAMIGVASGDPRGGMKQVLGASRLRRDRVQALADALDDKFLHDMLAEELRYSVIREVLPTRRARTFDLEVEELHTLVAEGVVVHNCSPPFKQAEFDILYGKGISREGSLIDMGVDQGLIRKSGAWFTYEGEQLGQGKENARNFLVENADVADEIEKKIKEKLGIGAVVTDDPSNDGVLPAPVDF

[12] = molecular target: T4, Replicative DNA helicase DnaB (Mycobacterium tuberculosis, UniProt P9WMR3); assay: DnaB intein splicing inhibitors, dose response, biochemical, cell-free fluorescence (AID 449749); assay type: functional
T4 sequence (P9WMR3 whole entry): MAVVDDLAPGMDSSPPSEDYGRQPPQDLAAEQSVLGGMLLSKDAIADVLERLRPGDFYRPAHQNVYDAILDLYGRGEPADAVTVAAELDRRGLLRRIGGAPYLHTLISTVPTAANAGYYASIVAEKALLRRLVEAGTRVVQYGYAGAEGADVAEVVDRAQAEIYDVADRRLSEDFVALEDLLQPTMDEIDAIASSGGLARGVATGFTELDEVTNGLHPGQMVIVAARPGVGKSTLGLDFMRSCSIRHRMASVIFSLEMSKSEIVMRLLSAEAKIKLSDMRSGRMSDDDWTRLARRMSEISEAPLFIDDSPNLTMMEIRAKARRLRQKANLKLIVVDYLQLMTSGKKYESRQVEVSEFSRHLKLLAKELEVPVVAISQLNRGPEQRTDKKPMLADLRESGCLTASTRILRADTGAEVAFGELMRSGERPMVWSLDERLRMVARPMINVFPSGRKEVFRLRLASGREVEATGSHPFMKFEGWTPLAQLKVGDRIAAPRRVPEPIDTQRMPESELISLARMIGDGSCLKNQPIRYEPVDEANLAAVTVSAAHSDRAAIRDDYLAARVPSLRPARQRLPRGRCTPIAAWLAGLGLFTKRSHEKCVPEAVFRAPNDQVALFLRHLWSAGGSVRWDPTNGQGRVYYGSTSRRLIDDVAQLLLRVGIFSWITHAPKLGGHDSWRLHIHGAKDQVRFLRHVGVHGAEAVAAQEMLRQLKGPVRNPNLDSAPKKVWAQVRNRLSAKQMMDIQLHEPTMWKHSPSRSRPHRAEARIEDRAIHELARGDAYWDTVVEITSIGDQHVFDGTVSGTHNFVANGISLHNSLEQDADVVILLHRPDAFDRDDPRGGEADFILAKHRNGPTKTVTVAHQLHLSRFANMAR

[13] = Trypanosoma cruzi growth suppression in host cells – NIH3T3 host cells, beta-gal luminescence, confirmation (AID 2044); assay type: functional, cell-based;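 note: intracellular parasites grown in NIH/3T3 mouse fibroblasts as host cells; luminescent beta-galactosidase reporter signal from transgenic T. cruzi replicating inside host cells; inhibitors lower the luminescence signal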
[14] = NIH3T3 cell viability loss – ATP luminescence, mouse fibroblasts, counter-screen, dose response (AID 2010); assay type: functional, cell-based;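 note: cells exposed to compound for about 90 hours before reading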
[15] = fluconazole-exposed Candida albicans growth modulators – fluorescence, retest, confirmation (AID 2467); assay type: functional, cell-based
[16] = NIH-3T3 fibroblast cytotoxicity, dose response, cytotoxicity control, cell-based, fluorescence, Alamar Blue, secondary assay (AID 2327); assay type: functional;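 note: NIH-3T3 mouse fibroblasts cultured with fluconazole at 8 µg/mL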

Cytochrome P450 2D6, sequence (P10635 whole entry): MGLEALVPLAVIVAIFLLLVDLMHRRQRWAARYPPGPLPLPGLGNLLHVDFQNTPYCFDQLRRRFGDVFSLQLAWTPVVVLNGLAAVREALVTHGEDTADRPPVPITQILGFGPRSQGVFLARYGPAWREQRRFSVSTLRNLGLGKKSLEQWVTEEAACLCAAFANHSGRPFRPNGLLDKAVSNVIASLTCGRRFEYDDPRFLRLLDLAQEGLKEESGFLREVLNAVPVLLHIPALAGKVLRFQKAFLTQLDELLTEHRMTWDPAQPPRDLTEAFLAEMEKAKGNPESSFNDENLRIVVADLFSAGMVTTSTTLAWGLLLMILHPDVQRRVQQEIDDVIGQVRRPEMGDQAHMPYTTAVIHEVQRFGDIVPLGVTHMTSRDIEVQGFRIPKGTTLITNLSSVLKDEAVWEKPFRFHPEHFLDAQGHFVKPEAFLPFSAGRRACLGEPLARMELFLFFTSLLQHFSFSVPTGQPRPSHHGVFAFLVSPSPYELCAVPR

## Cc1ccc(NC(=O)CN(C)C(=O)COc2cc(F)ccc2[N+](=O)[O-])cc1
[1]
  AC50: > 70 µM (inactive)
[2]
  AC50: 16.2 µM (active)

## CCCc1n(CC(O)COC2CCCCC2)c2ccccc2[n+]1C (centres undefined)
[3]
  IC50: 14.3 µM (active)

## Nc1nc(Br)c2c(F)cccc2c1-c1ccc(Cl)cc1
[4]
  EC50: > 260 µM (inactive)
[5]
  AC50: 3.16 µM (inconclusive)

## CN(C)C1=NC[C@H](Cc2ccccc2)N1CCCCc1ccccc1
[6]
  AC50: 8.01 µM (active)
[1]
  AC50: 58.9 µM (active)
[2]
  AC50: 4.5 µM (active)

## CC(O)/C=C/c1cccc[n+]1C (centres undefined)
[3]
  IC50: 12.2 µM (active)

## Cn1c(SCC(=O)NC(=O)NCc2ccco2)nnc1-c1ccccc1
[3]
  IC50: 6.39 µM (active)

## CCC1=Nc2cc(C(=O)O)ccc2Sc2ccc(Cl)cc21
[7]
  EC50: > 150 µM (not active)
[8]
  EC50: > 150 µM (not active)
[9]
  EC50: > 150 µM (not active)
[10]
  EC50: > 150 µM (not active)

## CC(C)Oc1cccc(C(=O)C2CCCN(C(=O)c3csnn3)C2)c1 (centres undefined)
[11]
  EC50: > 380 µM (inactive)
[12]
  AC50: > 380 µM (inactive)

## COc1cc(NC(=O)Cc2cccs2)ccc1-n1cnnn1
[4]
  EC50: > 260 µM (inactive)

## Cc1ccc(NC(=O)c2cnc(SCC(=O)NCC3CCCO3)n(C)c2=O)cc1 (centres undefined)
[11]
  EC50: 30.9 µM (active)
[12]
  AC50: 10.1 µM (active)

## O=C(COc1ccc(-n2cnnn2)cc1)Nc1cccc(Cl)c1Cl
[3]
  IC50: 6.36 µM (active)

## Cc1nn(-c2ccccc2)c2c1C(c1ccco1)C(C#N)=C(N)O2 (centres undefined)
[11]
  EC50: 4.03 µM (active)
[12]
  AC50: 5.88 µM (active)

## Cc1cc(C)c2nc3sc(C(=O)N4CCOCC4)c(N)c3cc2c1
[7]
  EC50: 2.62 µM (active)
[8]
  EC50: 2.52 µM (active)
[9]
  EC50: 26 µM (active)
[10]
  EC50: 2.64 µM (active)

## CC1CCC(NC(=O)Cn2c(=O)oc3cc(S(=O)(=O)N4CCCC4)ccc32)CC1 (centres undefined)
[3]
  IC50: 25.5 µM (active)

## CCOC(=O)CSCC(=O)N1N=C(c2cccs2)CC1c1ccc(F)cc1 (centres undefined)
[11]
  EC50: 15.1 µM (active)
[12]
  AC50: 17.7 µM (active)

## O=C1CCCN1CCCNc1c([N+](=O)[O-])nn(-c2ccc(Cl)cc2)[n+]1[O-]
[13]
  EC50: 0.562 µM (active)
[4]
  EC50: 26.5 µM (active)
[14]
  EC50: > 60 µM (inconclusive)
[15]
  EC50: > 38 µM (not active)
[16]
  EC50: 17 µM (active)
